# In PubChem BioAssay (NCI):
#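 Briefly, cells in 96-well plates were exposed to five compound concentrations for 48 h, and endpoints were estimated by linear interpolation. Here, GI50 denotes the concentration required for 50% inhibition of growth. At the TGI there is no net growth.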
# How the values were obtained:
# Test in all cases: NCI-60 cell line screen, 48 h
# [1] = test system: SF-295 CNS
# [2] = test system: M14 melanoma
# [3] = test system: MCF7 breast
# [4] = test system: SK-OV-3 ovarian
# [5] = test system: NCI-H23 lung
# [6] = test system: SNB-75 CNS
# [7] = test system: ACHN renal
# [8] = test system: SNB-19 CNS
# [9] = test system: HOP-92 NSCLC
# [10] = test system: SK-MEL-2 melanoma
# [11] = test system: 786-0 renal
# [12] = test system: LOX IMVI melanoma
# [13] = test system: MDA-MB-231 breast
# [14] = test system: U251 CNS
# [15] = test system: HOP-62 NSCLC
# [16] = test system: SF-268 CNS
# [17] = test system: HS 578T breast
# [18] = test system: BT-549 breast
# [19] = test system: OVCAR-8 ovarian
# [20] = test system: RXF 393 renal
# [21] = test system: HCT-116 colon
# [22] = test system: NCI/ADR-RES ovarian
# [23] = test system: T-47D breast
# [24] = test system: EKVX NSCLC
# [25] = test system: SF-539 CNS
# [26] = test system: CAKI-1 renal
# [27] = test system: NCI-H226 lung
# [28] = test system: UO-31 renal
# [29] = test system: MALME-3M melanoma
# [30] = test system: MDA-MB-435
# [31] = test system: A498 renal
# [32] = test system: SR leukemia
# [33] = test system: HCT-15 colon
# [34] = test system: IGROV1 ovarian
# [35] = test system: SK-MEL-28 melanoma
# [36] = test system: DU-145 prostate
# [37] = test system: MOLT-4 leukemia
# [38] = test system: HCC-2998 colon
# [39] = test system: SN12C renal
# [40] = test system: UACC-62 melanoma
# [41] = test system: SK-MEL-5 melanoma
# [42] = test system: SW-620 colon
# [43] = test system: HT29 colon
# [44] = test system: NCI-H460 lung
# [45] = test system: OVCAR-3 ovarian
# [46] = test system: RPMI-8226 leukemia
# [47] = test system: K-562 leukemia
# [48] = test system: OVCAR-5 ovarian
# [49] = test system: PC-3 prostate
# [50] = test system: UACC-257 melanoma
# [51] = test system: A549 NSCLC
# [52] = test system: CCRF-CEM leukemia
# [53] = test system: OVCAR-4 ovarian
# [54] = test system: TK-10 renal
# [55] = test system: KM12 colon
smiles,measurement,setting,value
Nc1nc(Cl)c(N=Nc2ccc(Cl)cc2)c(NCC2(CO)CCC2)n1,GI50,[1],49.4 µM
same,GI50,[2],98.9 µM
same,GI50,[3],25.3 µM
same,GI50,[4],12.6 µM
same,GI50,[5],48 µM
same,GI50,[6],7.05 µM
same,TGI,[6],30.1 µM
same,GI50,[7],41 µM
same,GI50,[8],33.7 µM
same,GI50,[9],14.9 µM
same,TGI,[9],64.9 µM
same,GI50,[10],89.3 µM
same,GI50,[11],10.2 µM
same,GI50,[12],41 µM
same,GI50,[13],8.74 µM
same,TGI,[13],51.1 µM
same,GI50,[14],41.1 µM
same,GI50,[15],42 µM
same,TGI,[15],82.6 µM
same,GI50,[16],46.3 µM
same,GI50,[17],32.9 µM
same,GI50,[18],49.8 µM
same,GI50,[19],26.8 µM
same,TGI,[19],88.8 µM
same,GI50,[20],36.5 µM
same,TGI,[20],61.6 µM
same,GI50,[21],36.8 µM
same,GI50,[22],41.8 µM
same,GI50,[23],26.4 µM
same,GI50,[24],21.7 µM
same,GI50,[25],90.7 µM
same,GI50,[26],2.27 µM
same,GI50,[27],77 µM
Cc1cc(N2CCSCC2)nc(NC2CCCC(Nc3ccnc4cc(Cl)ccc34)C2)n1 (stereo not drawn),GI50,[1],1.7 µM
same,TGI,[1],3.27 µM
same,GI50,[2],1.85 µM
same,TGI,[2],3.72 µM
same,GI50,[28],1.41 µM
same,TGI,[28],2.77 µM
same,GI50,[4],1.98 µM
same,TGI,[4],4.22 µM
same,GI50,[5],2.55 µM
same,TGI,[5],7.99 µM
same,GI50,[6],1.28 µM
same,TGI,[6],2.94 µM
same,GI50,[7],2.06 µM
same,TGI,[7],4.46 µM
same,GI50,[29],1.8 µM
same,TGI,[29],3.43 µM
same,GI50,[30],1.68 µM
same,TGI,[30],3.09 µM
same,GI50,[8],3.26 µM
same,TGI,[8],11.5 µM
same,GI50,[9],1.65 µM
same,TGI,[9],3.45 µM
same,GI50,[31],2.07 µM
same,TGI,[31],4.64 µM
same,GI50,[32],0.452 µM
same,TGI,[32],2.35 µM
same,GI50,[33],1.24 µM
same,TGI,[33],2.77 µM
same,GI50,[34],1.97 µM
same,TGI,[34],5.39 µM
same,GI50,[35],1.9 µM
same,TGI,[35],3.7 µM
same,GI50,[36],3.13 µM
same,TGI,[36],12.5 µM
same,GI50,[11],1.52 µM
same,TGI,[11],2.92 µM
same,GI50,[37],1.55 µM
same,TGI,[37],5.34 µM
same,GI50,[38],1.81 µM
same,TGI,[38],3.63 µM
same,GI50,[39],1.9 µM
same,TGI,[39],4.37 µM
same,GI50,[40],1.94 µM
same,TGI,[40],3.5 µM
same,GI50,[41],1.72 µM
same,TGI,[41],3.11 µM
same,GI50,[42],1.83 µM
same,TGI,[42],3.77 µM
same,GI50,[13],1.95 µM
same,TGI,[13],3.89 µM
same,GI50,[43],1.61 µM
same,TGI,[43],3.98 µM
same,GI50,[14],1.91 µM
same,TGI,[14],3.7 µM
same,GI50,[15],1.69 µM
same,TGI,[15],3.38 µM
same,GI50,[16],1.38 µM
same,TGI,[16],3.13 µM
same,GI50,[44],1.97 µM
same,TGI,[44],4.13 µM
same,GI50,[45],1.84 µM
same,TGI,[45],3.72 µM
same,GI50,[46],1.64 µM
same,TGI,[46],4.39 µM
same,GI50,[17],1.87 µM
same,TGI,[17],4.64 µM
same,GI50,[47],1.14 µM
same,TGI,[47],3.41 µM
same,GI50,[48],2.88 µM
same,TGI,[48],14.1 µM
same,GI50,[49],2.1 µM
same,TGI,[49],4.52 µM
same,GI50,[50],2.14 µM
same,TGI,[50],4.13 µM
same,GI50,[18],1.71 µM
same,TGI,[18],3.79 µM
same,GI50,[51],2.88 µM
same,TGI,[51],8.91 µM
same,GI50,[19],2.5 µM
same,TGI,[19],5.51 µM
same,GI50,[20],1.41 µM
same,TGI,[20],2.93 µM
same,GI50,[52],2.62 µM
same,TGI,[52],10.9 µM
same,GI50,[22],2.01 µM
same,TGI,[22],5.15 µM
same,GI50,[23],2.41 µM
same,TGI,[23],5.9 µM
same,GI50,[53],1.61 µM
same,TGI,[53],5.13 µM
same,GI50,[24],2.7 µM
same,TGI,[24],10.8 µM
same,GI50,[25],1.69 µM
same,TGI,[25],3.16 µM
same,GI50,[54],2.05 µM
same,TGI,[54],4.58 µM
same,GI50,[27],3.2 µM
same,TGI,[27],11 µM
same,GI50,[55],1.94 µM
same,TGI,[55],4.25 µM
